Data taken from patent US20230330178A1, “USE OF POLYPEPTIDE IN DRUG FOR PREVENTING AND TREATING PNEUMONIA” (priority 2020, published 2023).
Read-outs that look alike come from different tables or passages of the source.

Tests used:
[1] = tested on: models of pneumonia in rats induced by mixed bacteria solution of Staphylococcus aureus, Streptococcus pneumoniae, and Escherichia coli; assay: Lung function test in rat pneumonia model induced by mixed bacteria; type: in vivo, SD rats
From the text: (§1) Bacterial pneumonia is the most common pneumonia, is also one of the most common infectious diseases, and is caused by bacterial infection. Main pathogenic bacteria of the bacterial pneumonia include Streptococcus pneumoniae, Staphylococcus aureus, Escherichia coli, and the like, which pose a great threat to the health of children and the elderly. In this experiment, a mixed bacteria solution of Staphylococcus aureus, Streptococcus pneumoniae, and Escherichia coli was instilled into the trachea to induce models of pneumonia in rats. Pharmacodynamic effects of a peptide on pneumonia were evaluated by observing effects of the peptide inhaled through the nose and mouth on the models of pneumonia caused by mixed bacteria infection.
(§2) 80 SD rats, SPF grade, half male and half female, were selected and randomly divided into 8 groups according to sex and body weight, including 6 rats in each of a blank control group and a model evaluation group, 8 rats in a blank administration group, and 12 rats in each of a model control group, an erythromycin group, a budesonide group, a low-dose polypeptide treatment group, and a high-dose polypeptide treatment group.
(§3) Animals in the blank administration group were not modeled, and inhaled a high-concentration polypeptide aerosol (0.48 mg/L) through nose and mouth every day. Animals in the blank control group were instilled with a 0.5 mL 0.9% sodium chloride injection through trachea. After the remaining groups were slightly anesthetized with ether, the model control group, the erythromycin group, the budesonide group, the low-dose polypeptide treatment group, and the high-dose polypeptide treatment group were instilled with a 1×10^8 CFU/mL mixed bacteria solution of Staphylococcus aureus, Streptococcus pneumoniae, and Escherichia coli through trachea, 0.5 mL/rat, respectively, and the blank control group was instilled with a 0.9% sodium chloride injection of a same volume.
(§4) A specific modeling method was as follows: a rat was anesthetized by ether inhalation and lied on an anatomical plate at an angle of 30-45°, trachea of the rat was exposed under an otoscope, a long puncture needle was connected to a 1 mL syringe and inserted into the trachea, each rat was injected with 0.5 mL of mixed bacteria, the puncture needle was pulled out after the injection, the rat was still kept at the original tilt position for about 10 min, and the bacteria solution flowed into bronchus and alveoli due to gravity to cause infection, so as to induce a rat pneumonia model.
(§5) Each group was administrated for the first time at 2 h after modeling. After the experiment begun, 7.16 mg/mL and 71.6 mg/mL peptide solutions were atomized into aerosol particles with target concentrations of 0.07 and 0.48 mg/L every day, and the animals in the low-dose peptide treatment group and the high-dose peptide treatment group (0.54 mg/kg and 3.7 mg/kg, corresponding to drug concentrations 0.07 and 0.48 mg/L respectively) inhaled the aerosol particles with corresponding concentrations through mouth and nose respectively for 7 consecutive days, 10 min/time, 3 times a day; the blank administration group (cumulative dose 22.2 mg/kg, corresponding to a drug concentration 0.48 mg/L) inhaled 0.48 mg/L peptide aerosol particles through mouth and nose every day for 7 consecutive days, 20 min/time, 3 times a day; the blank control group and the model control group inhaled a 0.9% sodium chloride solution for the same time according to the same method; the erythromycin group and the budesonide group were administrated with a 5 mg/mL erythromycin solution and a 0.05 mg/mL budesonide suspension respectively for the same time according to the same method; and body weight of each group was tested every day.

[2] = tested on: Escherichia coli; assay: animal or person; type: in vivo; details: for Number of escherichia coli: lung tissue of pneumonia model rats; for inhibition at 50 µg/mL / inhibition at 5000 µg/mL, 18 mg/kg: Escherichia coli, in Rattus norvegicus, inhaled or nasal, vs model control group
Procedure: as §3, §4, §5
(§6) Except the blank administration group, half animals of the remaining groups were randomly selected for lung function test, gross anatomy examination, and pathological test on D4 day, and lungs of 3 animals in each group were selected for bacteria culture and counting; and on D8 day, the remaining animals were subjected to lung function test, gross anatomy examination, and pathological test, and lungs of 3 animals in each group were selected for bacteria culture and counting (the blank control group and the blank administration group were not examined).
(§7) Experimental steps of bacteria culture: except the blank administration group, six animals were randomly selected from each of the remaining groups (three animals were randomly selected from the first and last anatomies), left middle lobe lung tissues were taken, washed with 0.9% sodium chloride injection, added with double weight of 0.9% sodium chloride injection, and ground into homogenate, the homogenate was inoculated into a meat extract agar medium and cultured at 37° C. for 16 to 18 h, bacteria were isolated, and each isolated bacteria suspension was diluted to 10^−1, 10^−2, 10^−3, 10^−4, 10^−5, 10^−6, 10^−7 and 10^−8 according to 10 times gradient, namely, 9 mL normal saline plus 1 mL bacteria suspension was 10^−1, and so on. […]

[3] = tested on: Staphylococcus aureus; assay: animal or person; type: in vivo; details: for Number of staphylococcus aureus: lung tissue of pneumonia model rats; for inhibition at 50 µg/mL / inhibition at 5000 µg/mL, 18 mg/kg: Staphylococcus aureus, in Rattus norvegicus, inhaled or nasal, vs model control group
Procedure: as §3, §4, §5, §6, §7

[4] = tested on: Streptococcus pneumoniae; assay: animal or person; type: in vivo; details: for Number of streptococcus pneumoniae: lung tissue of pneumonia model rats; for inhibition at 50 µg/mL / inhibition at 5000 µg/mL, 18 mg/kg: Streptococcus pneumoniae, in Rattus norvegicus, inhaled or nasal, vs model control group
Procedure: as §3, §4, §5, §6, §7

[5] = tested on: models of pneumonia in rats induced by mixed bacteria solution of Staphylococcus aureus, Streptococcus pneumoniae, and Escherichia coli; assay: Arterial blood gas in rat pneumonia model induced by mixed bacteria; type: in vivo, SD rats; details: for PaCO2: partial pressure of carbon dioxide / PaO2: partial pressure of oxygen / arterial blood pH: pneumonia model rats
From the text: as §1, §2, §3, §4
as §5, with “day. […]” for “day.”

[6] = tested on: models of pneumonia in rats induced by mixed bacteria solution of Staphylococcus aureus, Streptococcus pneumoniae, and Escherichia coli; assay: Pathological test of lung tissue (HE) in rat pneumonia model; type: in vivo, SD rats; details: erythromycin 5 mg/mL solution (18 mg/kg) inhaled
From the text: as §1, §2
Animals in the blank administration group were not modeled, and inhaled a high-concentration polypeptide aerosol (0.48 mg/L) through nose and mouth every day. […]

[7] = D4, budesonide 0.05 mg/mL suspension (0.18 mg/kg) inhaled
[8] = D8, budesonide 0.05 mg/mL suspension (0.18 mg/kg) inhaled
[9] = D4, erythromycin 5 mg/mL solution (18 mg/kg) inhaled
[10] = D8, erythromycin 5 mg/mL solution (18 mg/kg) inhaled

CCCC1O[C@@H]2C[C@H]3[C@@H]4CCC5=CC(=O)C=C[C@]5(C)[C@H]4[C@@H](O)C[C@]3(C)[C@]2(C(=O)CO)O1 (some centres unmarked) [Budesonide, budesonide]
FEV200 (forced expiratory volume) [1, 7]: 2.72 ± 0.72 mL
FEV200/FVC [1, 7]: 85.78 ± 8.00%
FVC: forced vital capacity [1, 7]: 3.13 ± 0.59 mL
VT: tidal volume [1, 7]: 1.86 ± 0.69 mL
f: respiratory rate [1, 7]: 130 ± 39 time/min
FEV200 (forced expiratory volume) [1, 8]: 3.43 ± 0.69 mL
FEV200/FVC [1, 8]: 89.77 ± 4.58%
FVC: forced vital capacity [1, 8]: 3.80 ± 0.65 mL
VT: tidal volume [1, 8]: 1.63 ± 0.27 mL
f: respiratory rate [1, 8]: 126 ± 11 time/min
Number of escherichia coli [2, 7]: 3737 ± 1115 CFU/mL
Number of escherichia coli [2, 8]: 890 ± 409 CFU/mL
inhibition at 50 µg/mL ([2]; read-out: Inhibition rate of escherichia coli, D4, budesonide 0.05 mg/mL suspension (0.18 mg/kg) inhaled): -20.6%
inhibition at 50 µg/mL ([2]; read-out: Inhibition rate of escherichia coli, D8, budesonide 0.05 mg/mL suspension (0.18 mg/kg) inhaled): 7.58%
Number of staphylococcus aureus [3, 7]: 2577 ± 655 CFU/mL
Number of staphylococcus aureus [3, 8]: 560 ± 269 CFU/mL
inhibition at 50 µg/mL ([3]; read-out: Inhibition rate of staphylococcus aureus, D4, budesonide 0.05 mg/mL suspension (0.18 mg/kg) inhaled): 48.7%
inhibition at 50 µg/mL ([3]; read-out: Inhibition rate of staphylococcus aureus, D8, budesonide 0.05 mg/mL suspension (0.18 mg/kg) inhaled): 83.4%
Number of streptococcus pneumoniae [4, 7]: 1810 ± 957 CFU/mL
Number of streptococcus pneumoniae [4, 8]: 433 ± 276 CFU/mL
inhibition at 50 µg/mL ([4]; read-out: Inhibition rate of streptococcus pneumoniae, D4, budesonide 0.05 mg/mL suspension (0.18 mg/kg) inhaled): 61.7%
inhibition at 50 µg/mL ([4]; read-out: Inhibition rate of streptococcus pneumoniae, D8, budesonide 0.05 mg/mL suspension (0.18 mg/kg) inhaled): 72.7%
PaCO2: partial pressure of carbon dioxide [5, 7]: 52.87 ± 13.34 mmHg
PaO2: partial pressure of oxygen [5, 7]: 75.73 ± 30.92 mmHg
arterial blood pH [5, 7]: 7.31 ± 0.07
PaCO2: partial pressure of carbon dioxide [5, 8]: 34.35 ± 8.17 mmHg
PaO2: partial pressure of oxygen [5, 8]: 86.67 ± 24.78 mmHg
arterial blood pH [5, 8]: 7.45 ± 0.06

CC[C@H]1OC(=O)[C@H](C)[C@@H](O[C@H]2C[C@@](C)(OC)[C@@H](O)[C@H](C)O2)[C@H](C)[C@@H](O[C@@H]2O[C@H](C)C[C@H](N(C)C)[C@H]2O)[C@](C)(O)C[C@@H](C)C(=O)[C@H](C)[C@@H](O)[C@]1(C)O [Erythromycin, erythromycin]
FEV200 (forced expiratory volume) [1, 9]: 2.84 ± 0.54 mL
FEV200/FVC [1, 9]: 90.65 ± 4.78 %
FVC: forced vital capacity [1, 9]: 3.12 ± 0.52 mL
VT: tidal volume [1, 9]: 1.59 ± 0.39 mL
f: respiratory rate [1, 9]: 132 ± 27 time/min
FEV200 (forced expiratory volume) [1, 10]: 3.40 ± 0.12 mL
FEV200/FVC [1, 10]: 92.36 ± 2.94 %
FVC: forced vital capacity [1, 10]: 3.68 ± 0.20 mL
VT: tidal volume [1, 10]: 1.67 ± 0.24 mL
f: respiratory rate [1, 10]: 130 ± 25 time/min
pathological changes of lungs compared with the model control group ([6]; D4): significantly alleviated
lung tissue lesions ([6]; D8): tended to normal
Number of escherichia coli [2, 9]: 447 ± 146 CFU/mL
Number of escherichia coli [2, 10]: 80 ± 2 CFU/mL
inhibition at 5000 µg/mL, 18 mg/kg ([2]; read-out: Inhibition rate of escherichia coli, D4, erythromycin 5 mg/mL solution (18 mg/kg) inhaled): 85.6%
inhibition at 5000 µg/mL, 18 mg/kg ([2]; read-out: Inhibition rate of escherichia coli, D8, erythromycin 5 mg/mL solution (18 mg/kg) inhaled): 91.7%
Number of staphylococcus aureus [3, 9]: 633 ± 146 CFU/mL
Number of staphylococcus aureus [3, 10]: 113 ± 31 CFU/mL
inhibition at 5000 µg/mL, 18 mg/kg ([3]; read-out: Inhibition rate of staphylococcus aureus, D4, erythromycin 5 mg/mL solution (18 mg/kg) inhaled): 87.4%
inhibition at 5000 µg/mL, 18 mg/kg ([3]; read-out: Inhibition rate of staphylococcus aureus, D8, erythromycin 5 mg/mL solution (18 mg/kg) inhaled): 96.7%
Number of streptococcus pneumoniae [4, 9]: 1223 ± 287 CFU/mL
Number of streptococcus pneumoniae [4, 10]: 67 ± 15 CFU/mL
inhibition at 5000 µg/mL, 18 mg/kg ([4]; read-out: Inhibition rate of streptococcus pneumoniae, D4, erythromycin 5 mg/mL solution (18 mg/kg) inhaled): 74.1%
inhibition at 5000 µg/mL, 18 mg/kg ([4]; read-out: Inhibition rate of streptococcus pneumoniae, D8, erythromycin 5 mg/mL solution (18 mg/kg) inhaled): 95.8%
PaCO2: partial pressure of carbon dioxide [5, 9]: 50.38 ± 6.60 mmHg
PaO2: partial pressure of oxygen [5, 9]: 69.68 ± 15.16 mmHg
arterial blood pH [5, 9]: 7.33 ± 0.05
PaO2 increase vs model control group ([5]; D8, erythromycin group (18 mg/kg), no statistical difference): 37.17%
PaCO2: partial pressure of carbon dioxide [5, 10]: 39.37 ± 5.60 mmHg
PaO2: partial pressure of oxygen [5, 10]: 71.08 ± 14.74 mmHg
arterial blood pH [5, 10]: 7.42 ± 0.04
